From US9493466B2, “Treatment of cancer with TOR kinase inhibitors” (Signal Pharmaceuticals, LLC, priority 2011, dated 2016)

Experiments:
Test in all cases: Growth inhibition assay for breast cancer
Type in all cases: cell-based
[1] = test system: AU565; conditions: AU565 (Luminal, Her2+), 96 hours
Text: (§1) Growth Inhibition Assay for Breast Cancer (BC) (Compound 1). All breast cancer cell lines were maintained and tested in appropriate culture media. The seeding density for each cell line was optimized to ensure assay linearity in 384-well plates.
(§2) Increasing concentrations of Compound 1 were spotted via an acoustic dispenser (EDC ATS-100) into an empty 384-well plate. Compound 1 was spotted in a 10-point serial dilution fashion (3-fold dilution) in duplicate within the plate. The dimethyl sulfoxide (DMSO) concentration was kept constant for a final assay concentration of 0.1% DMSO. Plates were replicated for use against different cell lines and testing periods. After compound plate replication, all plates were sealed (Agilent ThermoLoc) and stored at −20° C. for up to 1 month. When ready for testing, plates were removed from the freezer, thawed, and unsealed just prior to the addition of the test cell.
(§3) Prior to testing, cells were grown and expanded in culture flasks to provide sufficient amounts of starting material. Cells were then diluted to their desired densities and added directly to the Compound 1-spotted 384-well plates. Cells were allowed to grow for 96 hours at 37° C./5% CO2. At the time of setup (t0), initial cell number was assessed via a viability assay (Cell Titer-Glo) and read for luminescence. After 96 hours, cell viability of Compound 1-treated cells was assessed via Cell Titer-Glo and read for luminescence.
(§4) Cell lines were assayed for growth inhibition by Compound 1 for at least two independent tests. All data was normalized and represented as a percentage of the DMSO-treated control cells. […] The potency of Compound 1 in different subtypes of breast cancer cell lines is shown in FIG. 7A, while the correlation of Compound 1 sensitivity to ER, HER, PIK3CA, and TP53 status is shown in FIG. 7B.

[2] = test system: BT-474; conditions: BT-474 (Luminal, Her2+), 96 hours
Text: as §1, §2, §3, §4

[3] = test system: BT-483; conditions: BT-483 (Luminal, ER+), 96 hours
Text: as §1, §2, §3, §4

[4] = test system: DU4475; conditions: DU4475 (Basal, TN), 96 hours
Text: as §1, §2, §3, §4

[5] = test system: EFM-19; conditions: EFM-19 (Luminal, ER+), 96 hours
Text: as §1, §2, §3, §4

[6] = test system: HCC1143; conditions: HCC1143 (Basal, TN), 96 hours
Text: as §1, §2, §3, §4

[7] = test system: HCC1187; conditions: HCC1187 (Basal, TN), 96 hours
Text: as §1, §2, §3, §4

[8] = test system: HCC1428; conditions: HCC1428 (Luminal, ER+), 96 hours
Text: as §1, §2, §3, §4

[9] = test system: HCC1500; conditions: HCC1500 (Luminal, ER+), 96 hours
Text: as §1, §2, §3, §4

[10] = test system: HCC1569; conditions: HCC1569 (Basal, Her2+), 96 hours
Text: as §1, §2, §3, §4

[11] = test system: HCC1954; conditions: HCC1954 (Basal, Her2+), 96 hours
Text: as §1, §2, §3, §4

[12] = test system: HCC202; conditions: HCC202 (Luminal, Her2+), 96 hours
Text: as §1, §2, §3, §4

[13] = test system: HCC2157; conditions: HCC2157 (Basal, TN), 96 hours
Text: as §1, §2, §3, §4

[14] = test system: HCC38; conditions: HCC38 (Basal, TN), 96 hours
Text: as §1, §2, §3, §4

[15] = test system: HCC70; conditions: HCC70 (Basal, TN), 96 hours
Text: as §1, §2, §3, §4

[16] = test system: HS578T; conditions: HS578T (Basal, TN), 96 hours
Text: as §1, §2, §3, §4

[17] = test system: KPL-1; conditions: KPL-1 (Luminal, ER+), 96 hours
Text: as §1, §2, §3, §4

[18] = test system: MCF10A; conditions: MCF10A (Basal, TN), 96 hours
Text: as §1, §2, §3, §4

[19] = test system: MCF7; conditions: MCF7 (Luminal, ER+), 96 hours
Text: as §1, §2, §3, §4

[20] = test system: MDA-MB-134-VI; conditions: MDA-MB-134-VI (Luminal, ER+), 96 hours
Text: as §1, §2, §3, §4

[21] = test system: MDA-MB-175-VII; conditions: MDA-MB-175-VII (Luminal, ER+), 96 hours
Text: as §1, §2, §3, §4

[22] = test system: MDA-MB-231; conditions: MDA-MB-231 (Basal, TN), 96 hours
Text: as §1, §2, §3, §4

[23] = test system: MDA-MB-361; conditions: MDA-MB-361 (Luminal, Her2+), 96 hours
Text: as §1, §2, §3, §4

[24] = test system: MDA-MB-415; conditions: MDA-MB-415 (Luminal, ER+), 96 hours
Text: as §1, §2, §3, §4

[25] = test system: MDA-MB-435; conditions: MDA-MB-435 (Basal, TN), 96 hours
Text: as §1, §2, §3, §4

[26] = test system: MDA-MB-436; conditions: MDA-MB-436 (Basal, TN), 96 hours
Text: as §1, §2, §3, §4

[27] = test system: MDA-MB-468; conditions: MDA-MB-468 (Basal, TN), 96 hours
Text: as §1, §2, §3, §4

[28] = test system: NCI/ADR-RES; conditions: NCI/ADR-RES (Basal, TN), 96 hours
Text: as §1, §2, §3, §4

[29] = test system: T47D; conditions: T47D (Luminal, ER+), 96 hours
Text: as §1, §2, §3, §4

[30] = test system: ZR-75-1; conditions: ZR-75-1 (Luminal, ER+), 96 hours
Text: as §1, §2, §3, §4

[31] = test system: ZR-75-30; conditions: ZR-75-30 (Luminal, Her2+), 96 hours
Text: as §1, §2, §3, §4

`CO[C@H]1CC[C@H](N2C(=O)CNc3ncc(-c4ccc(C(C)(C)O)nc4)nc32)CC1` [Compound 1, 7-(6-(2-hydroxypropan-2-yl)pyridin-3-yl)-1-((1r,4r)-4-methoxycyclohexyl)-3,4-dihydropyrazino-[2,3-b]pyrazin-2(1H)-one] showed a GI50 [1] of 213 nM, a GI50 [2] of 226 nM and a GI50 [3] of 21.7 nM. The GI50 [4] was 1240 nM, the GI50 [5] was 57.2 nM and the GI50 [6] was 343 nM. For the same compound, the GI50 [7] was 567 nM, the GI50 [8] was 98.4 nM and the GI50 [9] was 24.8 nM. The GI50 [10] was 356 nM, the GI50 [11] was 197 nM and the GI50 [12] was 20.1 nM. It also gave a GI50 [13] of 399 nM, a GI50 [14] of 2950 nM and a GI50 [15] of 172 nM. The GI50 [16] was 343 nM, the GI50 [17] was 97.3 nM and the GI50 [18] was 147 nM. It also gave a GI50 [19] of 181 nM, a GI50 [20] of 101 nM and a GI50 [21] of 40.8 nM. The GI50 [22] was 710 nM, the GI50 [23] was 65.7 nM and the GI50 [24] was 169 nM. For the same compound, the GI50 [25] was 222 nM, the GI50 [26] was 2990 nM and the GI50 [27] was 1860 nM. The GI50 [28] was 944 nM, the GI50 [29] was 55.3 nM and the GI50 [30] was 32.1 nM. It also gave a GI50 [31] of 63.4 nM.
